Measured values reported in the NIST ThermoML archive (doi:10.1021/je600583u).
Numbers after ± are expanded uncertainties.

Test: xn = mol fraction of the nth substance listed
Details: Fluid (supercritical or subcritical phases), isochoric method

CC(F)F [1,1-difluoroethane] + O=C=O
Details | molar volume [m3/mol]
293.08 K, 3005 kPa, x2 = 0.873 | 0.000595 ± 1e-06
293.09 K, 577 kPa, x2 = 0.25 | 0.003751 ± 8e-06
293.09 K, 699 kPa, x2 = 0.389 | 0.00308 ± 6e-06
293.09 K, 930 kPa, x2 = 0.503 | 0.002291 ± 5e-06
293.09 K, 1290 kPa, x2 = 0.685 | 0.001629 ± 3e-06
293.09 K, 1572 kPa, x2 = 0.731 | 0.001321 ± 3e-06
293.1 K, 1257 kPa, x2 = 0.631 | 0.001641 ± 3e-06
298.07 K, 590 kPa, x2 = 0.25 | 0.003752 ± 8e-06
298.07 K, 715 kPa, x2 = 0.389 | 0.003081 ± 6e-06
298.07 K, 952 kPa, x2 = 0.503 | 0.002292 ± 5e-06
298.07 K, 1610 kPa, x2 = 0.731 | 0.001321 ± 3e-06
298.07 K, 3114 kPa, x2 = 0.873 | 0.000595 ± 1e-06
298.08 K, 1320 kPa, x2 = 0.685 | 0.00163 ± 3e-06
298.09 K, 1287 kPa, x2 = 0.631 | 0.001641 ± 3e-06
303.04 K, 3203 kPa, x2 = 0.873 | 0.000595 ± 1e-06
303.05 K, 602 kPa, x2 = 0.25 | 0.003753 ± 8e-06
303.05 K, 973 kPa, x2 = 0.503 | 0.002292 ± 5e-06
303.06 K, 589 kPa, x2 = 0.117 | 0.003796 ± 8e-06
303.06 K, 731 kPa, x2 = 0.389 | 0.003081 ± 6e-06
303.06 K, 1350 kPa, x2 = 0.685 | 0.00163 ± 3e-06
303.06 K, 1648 kPa, x2 = 0.731 | 0.001321 ± 3e-06
303.07 K, 1317 kPa, x2 = 0.631 | 0.001642 ± 3e-06
308.03 K, 602 kPa, x2 = 0.117 | 0.003797 ± 8e-06
308.03 K, 3292 kPa, x2 = 0.873 | 0.000595 ± 1e-06
308.04 K, 615 kPa, x2 = 0.25 | 0.003753 ± 8e-06
308.04 K, 746 kPa, x2 = 0.389 | 0.003082 ± 6e-06
308.04 K, 994 kPa, x2 = 0.503 | 0.002293 ± 5e-06
308.04 K, 1380 kPa, x2 = 0.685 | 0.00163 ± 3e-06
308.05 K, 1346 kPa, x2 = 0.631 | 0.001642 ± 3e-06
308.05 K, 1685 kPa, x2 = 0.731 | 0.001322 ± 3e-06
313.02 K, 615 kPa, x2 = 0.117 | 0.003798 ± 8e-06
313.02 K, 3380 kPa, x2 = 0.873 | 0.000595 ± 1e-06
313.03 K, 627 kPa, x2 = 0.25 | 0.003754 ± 8e-06
313.03 K, 761 kPa, x2 = 0.389 | 0.003083 ± 6e-06
313.03 K, 1015 kPa, x2 = 0.503 | 0.002293 ± 5e-06
313.03 K, 1409 kPa, x2 = 0.685 | 0.001631 ± 3e-06
313.03 K, 1722 kPa, x2 = 0.731 | 0.001322 ± 3e-06
313.04 K, 1375 kPa, x2 = 0.631 | 0.001642 ± 3e-06
318 K, 3467 kPa, x2 = 0.873 | 0.000596 ± 1e-06
318.01 K, 627 kPa, x2 = 0.117 | 0.003799 ± 8e-06
318.01 K, 776 kPa, x2 = 0.389 | 0.003084 ± 6e-06
318.01 K, 1035 kPa, x2 = 0.503 | 0.002294 ± 5e-06
318.01 K, 1438 kPa, x2 = 0.685 | 0.001631 ± 3e-06
318.02 K, 640 kPa, x2 = 0.25 | 0.003755 ± 8e-06
318.02 K, 1758 kPa, x2 = 0.731 | 0.001322 ± 3e-06
318.03 K, 1404 kPa, x2 = 0.631 | 0.001643 ± 3e-06
323 K, 640 kPa, x2 = 0.117 | 0.0038 ± 8e-06
323 K, 652 kPa, x2 = 0.25 | 0.003756 ± 8e-06
323 K, 791 kPa, x2 = 0.389 | 0.003084 ± 6e-06
323 K, 1056 kPa, x2 = 0.503 | 0.002294 ± 5e-06
323 K, 1467 kPa, x2 = 0.685 | 0.001632 ± 3e-06
323 K, 1794 kPa, x2 = 0.731 | 0.001322 ± 3e-06
323 K, 3554 kPa, x2 = 0.873 | 0.000596 ± 1e-06
323.01 K, 1433 kPa, x2 = 0.631 | 0.001643 ± 3e-06
327.97 K, 3638 kPa, x2 = 0.873 | 0.000596 ± 1e-06
327.98 K, 652 kPa, x2 = 0.117 | 0.003801 ± 8e-06
327.98 K, 1076 kPa, x2 = 0.503 | 0.002295 ± 5e-06
327.98 K, 1830 kPa, x2 = 0.731 | 0.001323 ± 3e-06
327.99 K, 664 kPa, x2 = 0.25 | 0.003757 ± 8e-06
327.99 K, 806 kPa, x2 = 0.389 | 0.003085 ± 6e-06
327.99 K, 1496 kPa, x2 = 0.685 | 0.001632 ± 3e-06
328 K, 1461 kPa, x2 = 0.631 | 0.001643 ± 3e-06
332.96 K, 3723 kPa, x2 = 0.873 | 0.000596 ± 1e-06
332.97 K, 664 kPa, x2 = 0.117 | 0.003801 ± 8e-06
332.97 K, 820 kPa, x2 = 0.389 | 0.003086 ± 6e-06
332.97 K, 1096 kPa, x2 = 0.503 | 0.002295 ± 5e-06
332.97 K, 1524 kPa, x2 = 0.685 | 0.001632 ± 3e-06
332.97 K, 1866 kPa, x2 = 0.731 | 0.001323 ± 3e-06
332.98 K, 676 kPa, x2 = 0.25 | 0.003758 ± 8e-06
332.98 K, 1489 kPa, x2 = 0.631 | 0.001644 ± 3e-06
337.94 K, 3807 kPa, x2 = 0.873 | 0.000596 ± 1e-06
337.95 K, 835 kPa, x2 = 0.389 | 0.003086 ± 6e-06
337.95 K, 1116 kPa, x2 = 0.503 | 0.002296 ± 5e-06
337.96 K, 677 kPa, x2 = 0.117 | 0.003802 ± 8e-06
337.96 K, 688 kPa, x2 = 0.25 | 0.003758 ± 8e-06
337.96 K, 1553 kPa, x2 = 0.685 | 0.001633 ± 3e-06
337.96 K, 1901 kPa, x2 = 0.731 | 0.001323 ± 3e-06
337.97 K, 1517 kPa, x2 = 0.631 | 0.001644 ± 3e-06
342.93 K, 3890 kPa, x2 = 0.873 | 0.000596 ± 1e-06
342.94 K, 850 kPa, x2 = 0.389 | 0.003087 ± 6e-06
342.94 K, 1136 kPa, x2 = 0.503 | 0.002296 ± 5e-06
342.94 K, 1580 kPa, x2 = 0.685 | 0.001633 ± 3e-06
342.94 K, 1936 kPa, x2 = 0.731 | 0.001324 ± 3e-06
342.95 K, 689 kPa, x2 = 0.117 | 0.003803 ± 8e-06
342.95 K, 700 kPa, x2 = 0.25 | 0.003759 ± 8e-06
342.96 K, 1545 kPa, x2 = 0.631 | 0.001645 ± 3e-06
